# According to PMC4106781, “Efficacy of Selective PDE4D Negative Allosteric Modulators in the Object Retrieval Task in Female Cynomolgus Monkeys (Macaca fascicularis)” (PLoS ONE, 2014):
# Legend:
# NHPs = conditions: cited from earlier work
# [1] = system: female Cynomolgus monkeys; assay: Clinical observations (retching, emesis, salivation) during OR and PK studies; type: in vivo, Cynomolgus macaques (Macaca fascicularis); conditions: 0.03 mg/kg IM; one animal (5B09), 20 minutes post dose
# Experimental: • Week 1: Animals were habituated to intramuscular injections daily using the ‘rolipram’ vehicle formulation (10% solutol (w/v), 90% saline vehicle in a 0.1 mL/Kg dose volume) Monday through Friday, and a single baseline OR trial evaluation was performed on Wednesday (OR4) (Figure 2A). Animals were dosed with vehicle 30 minutes prior to this behavioural evaluation. • Weeks 2 to 5: Evaluation of rolipram in OR task. Following the stable baseline performance establishment (OR1 – 4), all animals were administered the 3 doses of rolipram (0.003, 0.01 and 0.03 mg/Kg) or vehicle intramuscularly 30 minutes before evaluation on the OR task, every Wednesday through Weeks 2–5 (OR5-8). All animals were dosed with vehicle on the preceding Monday and Tuesday to keep them habituated to the injections and avoid any Pavlovian conditioning to any pro-emetic effects of treatment, although no OR testing was carried out on those days. Treatment was administered at approximately the same time each day and administered via the intramuscular route at a volume of 0.1 mL/kg. […]
# Animals were closely monitored for the duration of the study, and were videotaped during task performance. Body weights were monitored weekly. Clinical observations were recorded prior to dose administration and after the completion of each OR task. […]
# [2] = system: female Cynomolgus monkeys; assay: Object retrieval (OR) detour task; type: in vivo, Cynomolgus macaques (Macaca fascicularis)
# Excerpt: A total of n = 8 female Cynomolgus monkeys aged 4–6 years were trained in the OR task and were used for these studies, following a cross-over design. Animals were trained to ensure adequate and stable performance during the dosing studies. Animals were individually housed prior to the initiation of the study. Animals were habituated to the oral gavage method using positive reinforcement techniques for a minimum of 2 weeks prior to the initiation of OR testing to mitigate any adverse impact on behaviour. To ensure accurate dosing each individual was momentarily restrained in a ‘standing’ type primate chair to allow easy and gentle passage of the gavage tube. The oral doses were administered in a dose volume of 1.0 mL/Kg which was followed with 5 mL of purified water to ensure no residual compound formulation remained in the gavage tube. During dose habituation and the study the same study personnel administered the compounds and thus a non-stressful, familiar routine for the animals was achieved.
# The OR task, [55] requires the subject to retrieve a food reward from a clear acrylic box (dimensions = 5×5×5 cm) with one open side which is positioned in front of the subject on a metal holder fixed to the outside of the home cage. The cube is presented to the subject with the open side facing left, right, or toward the monkey in a randomised set list of easy versus difficult trials. Food rewards (raisins or cubes of fruit pieces 1–2 cm^2) were placed on the outer edge, inner edge, line of sight (all easy), or deep within the box (difficult). Each test session consisted of 17 trials, with an initial Easy phase of 3 easy trials followed by a Random phase of 9 trials (4 difficult and 5 easy, presented randomly for each session), followed by a Difficult phase of 4 difficult trials and finally one final Easy Trial (Figure 2A). The final easy trial was included for reward purposes and although the number of attempts was recorded the data were not used for analysis. For successive test sessions, the subject was presented with the trials in an order exactly the reverse of the previous session (previous left side exposure became right side exposure and vice-versa). Individual trials within one OR session were terminated if there were no reaches or successful retrieval of the reward within 2 minutes by the subject. The acrylic box was cleaned between trials to minimize cues which may influence subsequent task performance through easier identification of the cube entrance.
# Animals were habituated to the metal frame prior to introducing the OR cube. During training, the animals were exposed to the OR trials as depicted in Figure 2A for 4 occasions (twice a week- OR trial # T1-T4 – data not shown). Importantly, during this period of training, all animals acquired the rewards even after an incorrect first reach. OR evaluations were then subsequently conducted once per week to discourage learning and thus ensure no performance shift during the pharmacology study (Figure 2B). […]
# Baseline performance was targeted to be an average, stable performance of >50% correct responses in the easy tasks, with less than 40% correct responses in the difficult tasks (Figure 2B). All animals evaluated during this phase met these criteria by the end of the training session, with the exception of one animal, which was a baseline ‘high performer’ on difficult trials (Animal 3939). […]
# [3] = repeat measures ANOVA, dose group as factor
smiles,measurement,setting,value
"COc1ccc(C2CNC(=O)C2)cc1OC1CCCC1 (stereo not drawn) [rolipram, Rolipram]",retching,"NHPs; 0.05 mg/kg IM, separate study, ref Maccine, personal communication",all animals retching
same,emesis,NHPs; 0.06 mg/kg,emesis
same,emesis (monkeys affected),NHPs; 0.1 mg/kg,12 of 14
same,adverse reactions,[1],Retching and severe salivation
same,"mean percent correct first reaches, difficult trials (effect vs vehicle)",[2]; 0.01 mg/kg IM,significance was not observed
same,"mean percent correct first reaches, difficult trials","[2]; 0.03 mg/Kg IM, 30 min before OR, mean ± SEM, vehicle 22±8%",42±8%
same,"mean percent correct first reach, easy level trials (effect of dosing)",[2]; [3],No significant improvement
same,"number of barrier reaches, difficult trials (effect of dosing)",[2]; [3],No significant change
same,"total number of reaches, difficult trials (effect of dosing)",[2]; [3],No significant change
